Holding throughout (format): cell-based, Echinococcus canadensis
Assay [1] has as its system Eca-5-HT1a. Nature of the assay: FLIPR calcium assay, agonist concentration-response.
The test system of assay [2] is T1, Eca-5-HT1a.
T1 construct: full-length mutant in HEK293-Gα15 cells
Nature of the assay: FLIPR calcium assay on mutant receptor.

Assay [3] relates to T2, Eca-5-HT1a.
T2 construct: full-length, human codon optimized cDNA in HEK293-GNA15 cells
Briefly: FLIPR calcium assay (Fluo-4), HEK293-GNA15 cells transiently expressing the receptor; a stable line gave EC50 […].

Molecules are shown by their SMILES.

On to `COc1ccc2[nH]cc(CCN)c2c1` [5-MTT, 5-methoxytryptamine], for which the EC50 (as a rule, the concentration giving half of the maximal effect) with Eca-5-HT1a [1] came out at 98 ± 50 nM.
For the molecule `NCCc1c[nH]c2ccc(O)cc12` [serotonin], the results for the EC50 in the assay on Eca-5-HT1a [2] and in the assay with Eca-5-HT1a [3] were 11500 nM and 7.74 ± 0.63 nM, respectively.
`CC(N)Cc1c[nH]c2ccc(O)cc12` (stereo not drawn) [α-MTS, α-methylserotonin]: the EC50 in the assay on Eca-5-HT1a [1] was 2730 ± 730 nM.
